{"source": "patent US12433902B2", "about": "“Liposomal formulations for inhibiting SARS-CoV-2 replication and reducing lung inflammation” (priority 2021, dated 2025)", "key": {"[1]": {"details": "cited from earlier work"}, "[2]": {"test": "Toxicity observation at the 20 μg dose of BUD", "assay_type": "in vivo, C57BL/6 mice", "details": "20 μg dose of BUD"}, "SARS-CoV-2": {"tested_on": "SARS-CoV-2", "details": "cited from earlier work"}}, "note": "Counter-ions that a name gives are not always drawn.", "data": [{"compound": "CCCC1O[C@@H]2C[C@H]3[C@@H]4CCC5=CC(=O)C=C[C@]5(C)[C@H]4[C@@H](O)C[C@]3(C)[C@]2(C(=O)CO)O1", "note": "(some centres unmarked) [budesonide]", "values": [{"measurement": "half-life", "setting": "[1]; BUD alone in the lungs", "value": "about 36 hours"}, {"measurement": "effective life in the lungs", "setting": "[1]; BUD alone", "value": "slightly more than one day"}, {"measurement": "toxicity to the spleen, liver, bone marrow, skin or the gastrointestinal tract", "setting": "[2]", "value": "without evidence of toxicity"}]}, {"compound": "CN(C)C(=O)COC(=O)Cc1ccc(OC(=O)c2ccc(NC(=N)N)cc2)cc1", "note": "[camostat mesylate]", "values": [{"measurement": "SARS-CoV-2 growth", "setting": "SARS-CoV-2; high doses (e.g., 100 μg/mL)", "value": "reduce SARS-CoV-2 growth partially"}]}, {"compound": "human recombinant soluble ACE2: human recombinant soluble ACE2", "values": [{"measurement": "viral growth in vitro", "setting": "SARS-CoV-2", "value": "reduces viral growth in vitro"}]}]}
